≈ marks a conversion by molar mass, not a printed value.
Columns and labels:
E. coli MG1655 = test: Antimicrobial susceptibility test (MIC); format: cell-based; details: Escherichia coli, MG1655
In short: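 CLSI micro-dilution broth method in cation-adjusted Mueller-Hinton broth, in biological triplicate; human serum (pooled, filtered) was also used.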

K. pneumoniae BAA 2472 = test: microbe, parasite or virus in culture; format: cell-based; details: Klebsiella pneumoniae, BAA2472, read-out: MIC K. pneumoniae BAA 2472, clinical isolate
In short: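 MICs by CLSI broth microdilution in cation-adjusted Mueller-Hinton broth, performed in biological triplicate. Strains: efflux-deficient E. coli ΔtolC (JW5503, KEIO collection) and K. pneumoniae BAA-2472 (ATCC).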

[1] = test system: carbapenem resistant E. coli; test: MIC against infecting strain of the UTI model; format: cell-based; details: Escherichia coli; extensively resistant carbapenem resistant E. coli of UTI model
Description: UTIs represent one of the biggest risks for healthy individuals in terms of exposure to antibiotic-resistant bacteria and many individuals contract one in their lifetime (roughly 1 in 2 women and 1 in 10 men); as such, these infections from Gram-negative pathogens, particularly those that are drug-resistant, remain a major clinical challenge. As E. coli is the causative agent in the great majority of UTIs fabimycin was evaluated in a murine UTI model with a challenging, extensively resistant strain of carbapenem resistant E. coli (fabimycin MIC=2 μg/mL). When dosed at 33.3 mg/kg, TID fabimycin was able to achieve 3.0, 2.8, 2.9, and 1.9 log10 reductions in bacterial load relative to the vehicle in the spleen, bladder, liver, and kidneys tissues, respectively (FIG. 4).

Plasma stability = format: in vitro ADME
in vivo = details: female, C57BL/6, mouse, in vivo
Description: Mouse MTD of Debio-1452-NH3. The protocol was approved by the IACUC at the University of Illinois at Urbana-Champaign (Protocol Number:16144). In these studies, 10- to 12-week-old female C57BL/6 mice purchased from Charles River were used. The maximum tolerate dose (MTD) of single compound was determined first. Debio-1452 amine analogues were formulated in 20% sulfobutyl ether β-cyclodextrin in sterile water. Debio-1452-NH3 (1), and compounds 2 and 3 were given by IP injection and mice were monitored for signs of toxicity for 2 weeks (single dose). For multiple dose, the compound was given by daily IP for 5 consecutive days and mice were monitored for signs of toxicity for 1 month. MTD was the highest dosage with acceptable toxicity (e.g. <20% weight loss). Single dose MTDs were initially determined. […] The MTD of Debio-1452-NH3 (1) was used to inform the dosing schedule used in subsequent efficacy studies.

Hepatocyte stability [2] = format: in vitro ADME
Hepatocyte stability [3] = format: in vitro ADME; remark: listed apart in the source
A. baumannii AR-299 [4] = test: Neutropenic mouse thigh infection; format: in vivo, CD-1 mice; details: 50 mg/kg, intramuscular (2, 6, and 11 h post-infection), 26 h
Description: (§1) With formulation, MTD, and pharmacokinetic data in hand, the efficacy of fabimycin was evaluated in murine infection models. To start, a comparative assessment was made of fabimycin and Debio-1452-NH3 in two murine neutropenic infection models using a dosing regimen that is at the MTD for Debio-1452-NH3 but below the MTD for fabimycin (three doses, intramuscular, at 50 mg/kg).
(§2) Chart 1. Summary of Fabimycin in vivo models.

A. baumannii AR-299 [5] = test: Acute pneumonia (lung) infection; format: in vivo, CD-1 mice; details: 50 mg/kg, intramuscular (QD), 48 h
Description: as §1, §2

[6] = female, BALB/c, mouse, in vivo, 100 mg/kg
in vitro = details: mouse, plasma, Plasma stability, t1/2, Mouse
HERG = HERG (Homo sapiens (Human), UniProt Q12809); test: cell-based
HERG, sequence (Q12809 whole entry): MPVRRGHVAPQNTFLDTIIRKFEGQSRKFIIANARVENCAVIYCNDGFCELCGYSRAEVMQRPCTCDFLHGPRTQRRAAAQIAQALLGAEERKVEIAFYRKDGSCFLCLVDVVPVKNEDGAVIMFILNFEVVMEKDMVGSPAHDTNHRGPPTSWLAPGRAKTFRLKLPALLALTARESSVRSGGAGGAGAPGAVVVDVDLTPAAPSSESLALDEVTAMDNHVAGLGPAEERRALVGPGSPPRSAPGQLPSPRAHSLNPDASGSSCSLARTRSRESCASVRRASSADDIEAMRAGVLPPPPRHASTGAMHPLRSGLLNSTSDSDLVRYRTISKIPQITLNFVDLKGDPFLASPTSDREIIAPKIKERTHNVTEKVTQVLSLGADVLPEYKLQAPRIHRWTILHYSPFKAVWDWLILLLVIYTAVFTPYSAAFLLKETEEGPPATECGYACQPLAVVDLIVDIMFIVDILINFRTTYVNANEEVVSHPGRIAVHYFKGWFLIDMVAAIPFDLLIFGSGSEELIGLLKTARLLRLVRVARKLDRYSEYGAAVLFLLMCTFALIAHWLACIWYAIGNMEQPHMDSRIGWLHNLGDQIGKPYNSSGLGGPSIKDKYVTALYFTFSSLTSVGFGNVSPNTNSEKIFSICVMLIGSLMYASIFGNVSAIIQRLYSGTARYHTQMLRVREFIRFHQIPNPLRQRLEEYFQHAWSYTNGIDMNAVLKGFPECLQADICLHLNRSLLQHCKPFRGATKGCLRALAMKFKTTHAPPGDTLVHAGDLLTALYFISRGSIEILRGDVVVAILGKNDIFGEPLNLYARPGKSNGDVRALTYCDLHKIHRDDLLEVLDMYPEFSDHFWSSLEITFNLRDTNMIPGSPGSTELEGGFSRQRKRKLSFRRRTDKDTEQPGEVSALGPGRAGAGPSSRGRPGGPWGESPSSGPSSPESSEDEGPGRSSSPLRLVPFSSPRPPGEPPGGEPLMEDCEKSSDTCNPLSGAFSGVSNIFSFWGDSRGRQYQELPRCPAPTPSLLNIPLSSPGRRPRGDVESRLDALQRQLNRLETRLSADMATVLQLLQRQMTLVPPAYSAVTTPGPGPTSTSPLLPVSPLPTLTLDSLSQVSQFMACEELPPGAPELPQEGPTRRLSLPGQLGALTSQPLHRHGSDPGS

CYP 2C9 = CYP 2C9 (Homo sapiens (Human), UniProt P11712); test: biochemical
CYP 2C9, sequence (P11712 whole entry): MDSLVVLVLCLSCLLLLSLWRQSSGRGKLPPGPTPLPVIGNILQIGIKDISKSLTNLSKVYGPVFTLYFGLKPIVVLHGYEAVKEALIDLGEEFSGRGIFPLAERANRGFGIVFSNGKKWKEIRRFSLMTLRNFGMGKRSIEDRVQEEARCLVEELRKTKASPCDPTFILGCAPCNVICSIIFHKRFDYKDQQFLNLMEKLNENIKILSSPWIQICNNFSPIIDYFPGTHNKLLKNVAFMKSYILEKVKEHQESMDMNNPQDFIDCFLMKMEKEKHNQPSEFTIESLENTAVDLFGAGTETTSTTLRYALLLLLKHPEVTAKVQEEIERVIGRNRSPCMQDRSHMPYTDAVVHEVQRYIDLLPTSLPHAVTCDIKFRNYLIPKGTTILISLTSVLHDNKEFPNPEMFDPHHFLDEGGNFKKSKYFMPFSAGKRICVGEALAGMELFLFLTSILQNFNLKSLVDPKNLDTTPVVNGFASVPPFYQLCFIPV

CYP 3A4 = CYP 3A4 (Homo sapiens (Human), UniProt P08684); test: biochemical
CYP 3A4, sequence (P08684 whole entry): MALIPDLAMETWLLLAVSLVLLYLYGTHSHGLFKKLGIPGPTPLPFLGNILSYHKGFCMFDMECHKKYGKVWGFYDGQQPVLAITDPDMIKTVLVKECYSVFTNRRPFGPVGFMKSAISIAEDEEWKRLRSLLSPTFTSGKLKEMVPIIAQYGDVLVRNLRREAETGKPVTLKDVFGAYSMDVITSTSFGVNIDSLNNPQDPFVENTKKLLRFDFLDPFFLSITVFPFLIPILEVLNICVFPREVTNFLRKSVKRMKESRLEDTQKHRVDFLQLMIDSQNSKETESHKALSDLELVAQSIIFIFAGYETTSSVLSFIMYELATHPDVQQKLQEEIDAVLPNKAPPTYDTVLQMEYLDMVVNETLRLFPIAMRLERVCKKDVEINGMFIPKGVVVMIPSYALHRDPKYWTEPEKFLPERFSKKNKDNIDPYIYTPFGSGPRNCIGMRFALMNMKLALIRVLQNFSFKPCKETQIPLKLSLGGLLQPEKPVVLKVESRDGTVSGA

CYP 1A2 = CYP 1A2 (Homo sapiens (Human), UniProt P05177); test: CYP inhibition
CYP 1A2, sequence (P05177 whole entry): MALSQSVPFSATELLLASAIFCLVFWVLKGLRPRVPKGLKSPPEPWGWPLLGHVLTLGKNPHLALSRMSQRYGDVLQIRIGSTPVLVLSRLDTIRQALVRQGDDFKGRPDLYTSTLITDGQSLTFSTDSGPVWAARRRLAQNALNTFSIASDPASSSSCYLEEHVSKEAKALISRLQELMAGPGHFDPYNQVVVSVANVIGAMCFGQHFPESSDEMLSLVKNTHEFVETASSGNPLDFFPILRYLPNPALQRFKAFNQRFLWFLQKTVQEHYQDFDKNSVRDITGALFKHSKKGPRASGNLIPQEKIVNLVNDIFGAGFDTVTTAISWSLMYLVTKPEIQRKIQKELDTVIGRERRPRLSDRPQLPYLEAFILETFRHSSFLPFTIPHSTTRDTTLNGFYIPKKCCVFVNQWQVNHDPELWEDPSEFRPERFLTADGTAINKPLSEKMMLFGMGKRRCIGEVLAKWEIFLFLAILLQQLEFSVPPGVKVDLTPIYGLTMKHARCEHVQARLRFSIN

[7] = Pharmacokinetic study in neutropenic infected mice

Cc1c(CN(C)C(=O)/C=C/c2cnc3c(c2)CC[C@H](N)C(=O)N3)oc2ccccc12 [(S)-11, (S,E)-3-(7-amino-8-oxo-6,7,8,9-tetrahydro-5H-pyrido[2,3-b]azepin-3-yl)-N-methyl-N-((3-methylbenzofuran-2-yl)methyl)acrylamide] showed an MIC (E. coli MG1655) of 2 µg/mL (≈ 4.94 µM), an MIC (K. pneumoniae BAA 2472) of 4 µg/mL (≈ 9.89 µM) and an MIC [1] of 2 µg/mL (≈ 4.94 µM). The “stability in rat plasma (in words)” value (Plasma stability) was “excellent stability”, the MTD at 5 d (in vivo) was 200 mg/kg and the “Hepatocyte stability, Mouse” value (Hepatocyte stability [2]) was 6.1 μL/min/million cells. The “Hepatocyte stability, Rat” value (Hepatocyte stability [3]) was 0.9 μL/min/million cells, the “log reduction relative to the vehicle” value (A. baumannii AR-299 [4]) was 2.3 log and the “log reduction relative to the vehicle” value (A. baumannii AR-299 [5]) was 3.9 log. For the same compound, the “time concentrations stayed above the MIC for the infectious strain” value [6] was “over 7 hours”, the half-life (in vitro) was 1.38 h and the IC50 (HERG) was 21.8 µM. The IC50 (CYP 2C9) was 27 µM, the IC50 (CYP 3A4) was 7 µM and the IC50 (CYP 1A2) was 31 µM. It also gave an AUClast ([7]; PLASMA, 75 mg/kg IV) of 45400 ng·h/mL, a CL ([7]; PLASMA, 75 mg/kg IV) of 26.9 mL/min/kg and a Cmax ([7]; PLASMA, 75 mg/kg IV) of 34600 ng/mL. The AUClast ([7]; PLASMA, 100 mg/kg IV) was 69800 ng·h/mL, the CL ([7]; PLASMA, 100 mg/kg IV) was 23.5 mL/min/kg and the Cmax ([7]; PLASMA, 100 mg/kg IV) was 47300 ng/mL. It also gave an AUClast ([7]; THIGH, 75 mg/kg IV) of 65200 ng·h/mL, a CL ([7]; THIGH, 75 mg/kg IV) of 18.9 mL/min/kg and a Cmax ([7]; THIGH, 75 mg/kg IV) of 33.0 µg/g. It also gave an AUClast ([7]; THIGH, 100 mg/kg IV) of 112000 ng·h/mL, a CL ([7]; THIGH, 100 mg/kg IV) of 14.7 mL/min/kg and a Cmax ([7]; THIGH, 100 mg/kg IV) of 60.2 µg/g.

Source: patent US20240190872A1, “FABI INHIBITORS FOR GRAM-NEGATIVE PATHOGENS” (THE BOARD OF TRUSTEES OF THE UNIVERSITY OF ILLINOIS, priority 2021, published 2024)
